Drawing on patent US9376425B2, “Heterocyclic compounds as MDM2 inhibitors for the treatment of cancer” (AMGEN INC., priority 2011, dated 2016), this text covers IC50 for 14 molecules.

Structures are written as SMILES.

T1 sequence (Q00987 1-188): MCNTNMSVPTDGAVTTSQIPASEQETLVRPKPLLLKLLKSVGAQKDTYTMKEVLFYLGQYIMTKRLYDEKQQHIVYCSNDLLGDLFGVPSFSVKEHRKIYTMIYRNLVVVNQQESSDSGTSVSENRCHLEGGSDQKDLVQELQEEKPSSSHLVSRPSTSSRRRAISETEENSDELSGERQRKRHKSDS

The experiment addresses T1, human MDM2 (GST-hMDM2 1-188), interaction with biotinylated-p53 (1-83) (Homo sapiens, UniProt Q00987).
T1 construct: Amino acid residues 1-188 of human MDM2 were expressed; made in house; host or cells: Escherichia coli
As to the kind of experiment: improved HTRF assay (HTRF2 assay), inhibition of HDM2-p53 interaction. Type of experiment: binding. Particulars: 0.2 nM GST-hMDM2, 0.5 nM biotinylated-p53, 100 mM KF. Summed up: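 Time-resolved fluorescence (HTRF) read after >4 h equilibration with SA-XLent/anti-GST cryptate/KF detection reagents. Reaction: compound plus GST-hMDM2 for 20 min at room temperature, then E. coli-expressed biotinylated p53 residues 1-83 for 60 min, 2% DMSO final. Inhibition expressed versus nutlin-3.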
Regarding `CC[C@@H](CS(=O)(=O)C(C)(C)C)N1C(=O)[C@@H](CNC(=O)N(CC)CC)O[C@H](c2cccc(Cl)c2)[C@H]1c1ccc(Cl)cc1` (single isomer, unassigned) [Example 375, 3-(((2R,5R,6R)-4-((S)-1-(tert-Butylsulfonyl)butan-2-yl)-6-(3-chlorophenyl)-5-(4-chlorophenyl)-3-oxomorpholin-2-yl)methyl)-1,1-diethylurea or 3-(((2S,5R,6R)-4-((S)-1-(tert-butylsulfonyl)butan-2-yl)-6-(3-chlorophenyl)-5-(4-chlorophenyl)-3-oxomorpholin-2-yl)methyl)-1,1-diethylurea], the IC50 was 55 nM.

As to `CC[C@@H](CS(=O)(=O)C(C)(C)C)N1C(=O)[C@@H](CNC(=O)N(CC)CC)O[C@H](c2cccc(Cl)c2)[C@H]1c1ccc(Cl)cc1` (single isomer, unassigned) [Example 376, 3-(((2R,5R,6R)-4-((S)-1-(tert-Butylsulfonyl)butan-2-yl)-6-(3-chlorophenyl)-5-(4-chlorophenyl)-3-oxomorpholin-2-yl)methyl)-1,1-diethylurea or 3-(((2S,5R,6R)-4-((S)-1-(tert-butylsulfonyl)butan-2-yl)-6-(3-chlorophenyl)-5-(4-chlorophenyl)-3-oxomorpholin-2-yl)methyl)-1,1-diethylurea], inhibition was half-maximal at 48 nM (IC50). `CC[C@@H](CS(=O)(=O)C(C)(C)C)N1C(=O)[C@@H](CNC(C)=O)O[C@H](c2cccc(Cl)c2)[C@H]1c1ccc(Cl)cc1` (single isomer, unassigned) [Example 379, N-(((2R,5R,6R)-4-((S)-1-(tert-Butylsulfonyl)butan-2-yl)-6-(3-chlorophenyl)-5-(4-chlorophenyl)-3-oxomorpholin-2-yl)methyl)acetamide or N-(42S,5R,6R)-4-((S)-1-(tert-butylsulfonyl)butan-2-yl)-6-(3-chlorophenyl)-5-(4-chlorophenyl)-3-oxomorpholin-2-yl)methyl)acetamide] showed an IC50 of 82 nM. The same measure for `CC[C@@H](CS(=O)(=O)C(C)(C)C)N1C(=O)[C@@H](CNC(C)=O)O[C@H](c2cccc(Cl)c2)[C@H]1c1ccc(Cl)cc1` (single isomer, unassigned) [Example 380, N-(((2R,5R,6R)-4-((S)-1-(tert-Butylsulfonyl)butan-2-yl)-6-(3-chlorophenyl)-5-(4-chlorophenyl)-3-oxomorpholin-2-yl)methyl)acetamide or N-(((2S,5R,6R)-4-((S)-1-(tert-butylsulfonyl)butan-2-yl)-6-(3-chlorophenyl)-5-(4-chlorophenyl)-3-oxomorpholin-2-yl)methyl)acetamide]: 48 nM; for `CC(C)(C)S(=O)(=O)C[C@H](C1CC1)N1C(=O)[C@@H](Cc2cnn[nH]2)O[C@H](c2cccc(Cl)c2)[C@H]1c1ccc(Cl)cc1` (single isomer, unassigned) [Example 385, (2R,5R,6R)-2-((1H-1,2,3-Triazol-5-yl)methyl)-4-((S)-2-(tert-butylsulfonyl)-1-cyclopropylethyl)-6-(3-chlorophenyl)-5-(4-chlorophenyl)morpholin-3-one or (2S,5R,6R)-2-((1H-1,2,3-triazol-5-yl)methyl)-4-((S)-2-(tert-butylsulfonyl)-1-cyclopropylethyl)-6-(3-chlorophenyl)-5-(4-chlorophenyl)morpholin-3-one]: 4 nM. Molecule `CC(C)(C)S(=O)(=O)C[C@H](C1CC1)N1C(=O)[C@@H](Cc2cnn[nH]2)O[C@H](c2cccc(Cl)c2)[C@H]1c1ccc(Cl)cc1` (single isomer, unassigned) [Example 386, (2R,5R,6R)-2-((1H-1,2,3-Triazol-5-yl)methyl)-4-((S)-2-(tert-butylsulfonyl)-1-cyclopropylethyl)-6-(3-chlorophenyl)-5-(4-chlorophenyl)morpholin-3-one or (2S,5R,6R)-2-((1H-1,2,3-triazol-5-yl)methyl)-4-((S)-2-(tert-butylsulfonyl)-1-cyclopropylethyl)-6-(3-chlorophenyl)-5-(4-chlorophenyl)morpholin-3-one] showed an IC50 of 13 nM. Then `CC(C)(C)S(=O)(=O)C[C@H](C1CC1)N1C(=O)[C@@H](CC#N)O[C@H](c2cccc(Cl)c2)[C@H]1c1ccc(Cl)cc1` (single isomer, unassigned) [Example 387, 2-((2R,5R,6R)-4-((S)-2-(tert-Butylsulfonyl)-1-cyclopropylethyl)-6-(3-chlorophenyl)-5-(4-chlorophenyl)-3-oxomorpholin-2-yl)acetonitrile or 2-((2S,5R,6R)-4-((S)-2-(tert-butylsulfonyl)-1-cyclopropylethyl)-6-(3-chlorophenyl)-5-(4-chlorophenyl)-3-oxomorpholin-2-yl)acetonitrile], with 62 nM; and `CC(C)(C)S(=O)(=O)C[C@H](C1CC1)N1C(=O)[C@@H](CC#N)O[C@H](c2cccc(Cl)c2)[C@H]1c1ccc(Cl)cc1` (single isomer, unassigned) [Example 388, 2-((2R,5R,6R)-4-((S)-2-(tert-Butylsulfonyl)-1-cyclopropylethyl)-6-(3-chlorophenyl)-5-(4-chlorophenyl)-3-oxomorpholin-2-yl)acetonitrile or 2-((2S,5R,6R)-4-((S)-2-(tert-butylsulfonyl)-1-cyclopropylethyl)-6-(3-chlorophenyl)-5-(4-chlorophenyl)-3-oxomorpholin-2-yl)acetonitrile], with 28 nM; and `CC(C)(C)S(=O)(=O)C[C@H](C1CC1)N1C(=O)[C@@H](Cc2ncn[nH]2)O[C@H](c2cccc(Cl)c2)[C@H]1c1ccc(Cl)cc1` (single isomer, unassigned) [Example 389, (2R,5R,6R)-2-((1H-1,2,4-Triazol-5-yl)methyl)-4-((S)-2-(tert-butylsulfonyl)-1-cyclopropylethyl)-6-(3-chlorophenyl)-5-(4-chlorophenyl)morpholin-3-one or (2S,5R,6R)-2-((1H-1,2,4-triazol-5-yl)methyl)-4-((S)-2-(tert-butylsulfonyl)-1-cyclopropylethyl)-6-(3-chlorophenyl)-5-(4-chlorophenyl)morpholin-3-one], with 19 nM. `CC(C)(C)S(=O)(=O)C[C@H](C1CC1)N1C(=O)[C@@H](Cc2ncn[nH]2)O[C@H](c2cccc(Cl)c2)[C@H]1c1ccc(Cl)cc1` (single isomer, unassigned) [Example 390, (2R,5R,6R)-2-((1H-1,2,4-Triazol-5-yl)methyl)-4-((S)-2-(tert-butylsulfonyl)-1-cyclopropylethyl)-6-(3-chlorophenyl)-5-(4-chlorophenyl)morpholin-3-one or (2S,5R,6R)-2-((1H-1,2,4-triazol-5-yl)methyl)-4-((S)-2-(tert-butylsulfonyl)-1-cyclopropylethyl)-6-(3-chlorophenyl)-5-(4-chlorophenyl)morpholin-3-one] had an IC50 of 11 nM. The same measure for `Cc1n[nH]c(C[C@H]2O[C@H](c3cccc(Cl)c3)[C@@H](c3ccc(Cl)cc3)N([C@H](CN(c3ccccc3F)S(=O)(=O)C3CC3)C3CC3)C2=O)n1` (single isomer, unassigned) [Example 392, N-((S)-2-((2R,3R,6R)-2-(3-Chlorophenyl)-3-(4-chlorophenyl)-6-((3-methyl-1H-1,2,4-triazol-5-yl)methyl)-5-oxomorpholino)-2-cyclopropylethyl)-N-(2-fluorophenyl)cyclopropanesulfonamide or N-((S)-2-((2S,3R,6R)-2-(3-chlorophenyl)-3-(4-chlorophenyl)-6-((3-methyl-1H-1,2,4-triazol-5-yl)methyl)-5-oxomorpholino)-2-cyclopropylethyl)-N-(2-fluorophenyl)cyclopropanesulfonamide]: less than 1 nM; for `Cc1n[nH]c(C[C@H]2O[C@H](c3cccc(Cl)c3)[C@@H](c3ccc(Cl)cc3)N([C@H](CN(c3ccccc3F)S(=O)(=O)C3CC3)C3CC3)C2=O)n1` (single isomer, unassigned) [Example 393, N-((S)-2-((2R,3R,6R)-2-(3-Chlorophenyl)-3-(4-chlorophenyl)-6-((3-methyl-1H-1,2,4-triazol-5-yl)methyl)-5-oxomorpholino)-2-cyclopropylethyl)-N-(2-fluorophenyl)cyclopropanesulfonamide or N-((S)-2-((2S,3R,6R)-2-(3-chlorophenyl)-3-(4-chlorophenyl)-6-((3-methyl-1H-1,2,4-triazol-5-yl)methyl)-5-oxomorpholino)-2-cyclopropylethyl)-N-(2-fluorophenyl)cyclopropanesulfonamide]: less than 1 nM; for `O=C1[C@@H](Cc2cnn[nH]2)O[C@H](c2cccc(Cl)c2)[C@@H](c2ccc(Cl)cc2)N1[C@H](CN(c1ccccc1F)S(=O)(=O)C1CC1)C1CC1` (single isomer, unassigned) [Example 394, N-((S)-2-((2R,5R,6R)-2-((1H-1,2,3-Triazol-5-yl)methyl)-6-(3-chlorophenyl)-5-(4-chlorophenyl)-3-oxomorpholino)-2-cyclopropylethyl)-N-(2-fluorophenyl)cyclopropanesulfonamide or N-((S)-2-((2S,5R,6R)-2-((1H-1,2,3-triazol-5-yl)methyl)-6-(3-chlorophenyl)-5-(4-chlorophenyl)-3-oxomorpholino)-2-cyclopropylethyl)-N-(2-fluorophenyl)cyclopropanesulfonamide]: 1 nM. Molecule `O=C1[C@@H](Cc2cnn[nH]2)O[C@H](c2cccc(Cl)c2)[C@@H](c2ccc(Cl)cc2)N1[C@H](CN(c1ccccc1F)S(=O)(=O)C1CC1)C1CC1` (single isomer, unassigned) [Example 395, N-((S)-2-((2R,5R,6R)-2-((1H-1,2,3-Triazol-5-yl)methyl)-6-(3-chlorophenyl)-5-(4-chlorophenyl)-3-oxomorpholino)-2-cyclopropylethyl)-N-(2-fluorophenyl)cyclopropanesulfonamide or N-((S)-2-((2S,5R,6R)-2-((1H-1,2,3-triazol-5-yl)methyl)-6-(3-chlorophenyl)-5-(4-chlorophenyl)-3-oxomorpholino)-2-cyclopropylethyl)-N-(2-fluorophenyl)cyclopropanesulfonamide] registered an IC50 of 1 nM.
